Assay results taken from US6362167B1, “Method of blocking free radical processes which result in mediated pathology without deleterious pro-oxidant side reactions” (Natreon Inc., priority 1999, dated 2002).
≈ marks a conversion by molar mass, not a printed value.

Assays:
[1] = DPPH radical scavenging (antioxidant activity); assay type: biochemical; conditions: DPPH 100 μM in absolute ethyl alcohol, 20 minutes, absorbance 570 nm; mean ± SEM (n = 10 to 12)
Procedure: After 20 minutes, the absorbance (optical density) of the mixture was measured at a wavelength of 570 nm and compared to that of the control sample. The degree of scavenging of the DPPH radical by each test sample was calculated by comparing the absorbance of the test sample and the diluent control reaction mixture. The results are shown in Table 2 below, a lower IC value indicating a better antioxidant effect on the DPPH radical.

[2] = system: PBR 322 plasmid DNA; assay: Prevention of DNA strand scission by hydroxyl radical from Cu(en)2-hydrogen peroxide; assay type: biochemical
Procedure: The DNA strand scission was investigated by a method published by T. Ozawa, et al [Biochem. Mol. Biol. Int. 31, 455-46, 1993]. The method consists of addition of hydrogen peroxide (30%, final concentration 25 mM) to a mixture of Cu(en)2 (final concentration 0.25 mM) and 0.5 mcg of PBR 322 plasmid DNA solution (Takara Co., Japan). The hydroxyl radical, generated from Cu(en)2-hydrogen peroxide reaction, caused DNA strand scission.

[3] = Polymerization of methylmethacrylate (MMA) to polymethylmethacrylate (PMMA) by Fenton's reagent; conditions: for Effect on polymerization of MMA→PMMA: low concentrations of ascorbic acid (1.0 mg in b63)
Procedure: Thus, the pro-oxidant effect of a low concentration of AA could be systemically quite dangerous due to distinct involvement of OH radicals. […] N2 was passed through the mixture for 30 min. followed by H2O2. The onset of polymerization (the induction period in minutes) was noted. Polymerization was completed in about 24 hours at 35±2° C. The resulting precipitate was collected, washed and dried at 50° C. until a constant weight was obtained (See Table 3).

[4] = DNA + OH radical + test material
[5] = 3 g sample added (so in the source)

Compound: CC(=O)Oc1c(C)c(C)c2c(c1C)CCC(C)(CCC[C@H](C)CCC[C@H](C)CCCC(C)C)O2 (stereo partly drawn) [α-Tocopheryl acetate (TA), α-Tocopheryl acetate]
- IC50 (DPPH radical scavenging) [1]: 50.55 ± 7.03 µg/mL

Compound: O=C1O[C@H]([C@@H](O)CO)C(O)=C1O [AA, Ascorbic acid]
- Linear form of DNA (LIN, Produced after breakage) [2, 4]: 60%
- Open circular form Of DNA (OC) [2, 4]: 40%
- Effect on DNA strand-scission by hydroxyl radicals compared to the control value ([2]; physiological pH, Cu(en)2 and hydrogen peroxide): accelerated
- IC50 (DPPH radical scavenging) [1]: 18.41 ± 3.88 µg/mL (≈ 105 µM)
- % Conversion of MMA → PMMA ([3]; 1 mg sample added): 78.7 ↑ %
- Induction Time ([3]; 1 mg sample added): 0 min
- Yield of PMMA ([3]; 1 mg sample added): 772 mg
- % Conversion of MMA → PMMA ([3]; 2 mg sample added): 69.8 ↑ %
- Induction Time ([3]; 2 mg sample added): 0 min
- Yield of PMMA ([3]; 2 mg sample added): 692 mg
- % Conversion of MMA → PMMA ([3]; 4 mg sample added): 44.0%
- Induction Time ([3]; 4 mg sample added): 0 min
- Yield of PMMA ([3]; 4 mg sample added): 432 mg
- % Conversion of MMA → PMMA ([3]; 5 mg sample added): 23.1%
- Induction Time ([3]; 5 mg sample added): 0 min
- Yield of PMMA ([3]; 5 mg sample added): 227 mg
- % Conversion of MMA → PMMA ([3]; 10 mg sample added): 8.4%
- Induction Time ([3]; 10 mg sample added): 0 min
- Yield of PMMA ([3]; 10 mg sample added): 83 mg
- % Conversion of MMA → PMMA [3, 5]: 68.2 ↑ %
- Induction Time [3, 5]: 0 min
- Yield of PMMA [3, 5]: 670 mg
- Effect on polymerization of MMA→PMMA [3]: significant augmentation of polymerization
- Effect on polymerization of MMA→PMMA ([3]; listed as ascorbic acid): augmented polymerization
